# According to patent US20220281848A1, “PYRAZOLE-SUBSTITUTED PYRROLIDINONES AS HERBICIDES” (FMC Corporation, priority 2019, published 2022):
# Test system: plants
# Experiment: Test D pre-emergence, other plants of Tables D1 and D3
# Format: in vivo
# Settings: pre-emergence, 100=total damage, 0=no damage
# In short: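 Seeds treated with herbicide safener; sown in soil; glasshouse, 16 h light, 65% humidity. Sprayed day 1 (pre) or ~day 12 (post). Spray in 0.2% v/v adjuvant. Scored 0–100 damage: 20 DAA pre, 15 d post.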
smiles,measurement,setting,value
CN1CC(c2cc(C(F)(F)F)n(C)n2)C(C(=O)Nc2cccc(F)c2C(F)(F)F)C1=O (racemic) [Compound 19],"damage to plant, ALOMY","rate 15, 20 DAA",0
same,"damage to plant, AVEFA","rate 15, 20 DAA",0
same,"damage to plant, BEAVA","rate 15, 20 DAA",0
same,"damage to plant, BROTE","rate 15, 20 DAA",0
same,"damage to plant, BRSNN","rate 15, 20 DAA",0
same,"damage to plant, CHEAL","rate 15, 20 DAA",0
same,"damage to plant, GALAP","rate 15, 20 DAA",0
same,"damage to plant, HORVW","rate 15, 20 DAA",0
same,"damage to plant, KCHSC","rate 15, 20 DAA",0
same,"damage to plant, LOLPE","rate 15, 20 DAA",0
same,"damage to plant, POAAN","rate 15, 20 DAA",0
same,"damage to plant, POLCO","rate 15, 20 DAA",0
same,"damage to plant, SINAR","rate 15, 20 DAA",0
same,"damage to plant, STEME","rate 15, 20 DAA",0
same,"damage to plant, VERPE","rate 15, 20 DAA",0
same,"damage to plant, ALOMY","rate 30, 20 DAA",0
same,"damage to plant, AVEFA","rate 30, 20 DAA",0
same,"damage to plant, BEAVA","rate 30, 20 DAA",0
same,"damage to plant, BROTE","rate 30, 20 DAA",0
same,"damage to plant, BRSNN","rate 30, 20 DAA",0
same,"damage to plant, CHEAL","rate 30, 20 DAA",0
same,"damage to plant, GALAP","rate 30, 20 DAA",0
same,"damage to plant, HORVW","rate 30, 20 DAA",0
same,"damage to plant, KCHSC","rate 30, 20 DAA",0
same,"damage to plant, LOLPE","rate 30, 20 DAA",0
same,"damage to plant, POAAN","rate 30, 20 DAA",0
same,"damage to plant, POLCO","rate 30, 20 DAA",0
same,"damage to plant, SINAR","rate 30, 20 DAA",0
same,"damage to plant, STEME","rate 30, 20 DAA",0
same,"damage to plant, VERPE","rate 30, 20 DAA",0
same,"damage to plant, ALOMY","rate 60, 20 DAA",0
same,"damage to plant, AVEFA","rate 60, 20 DAA",0
same,"damage to plant, BEAVA","rate 60, 20 DAA",0
same,"damage to plant, BROTE","rate 60, 20 DAA",0
same,"damage to plant, BRSNN","rate 60, 20 DAA",0
same,"damage to plant, CHEAL","rate 60, 20 DAA",0
same,"damage to plant, GALAP","rate 60, 20 DAA",0
same,"damage to plant, HORVW","rate 60, 20 DAA",0
same,"damage to plant, KCHSC","rate 60, 20 DAA",0
same,"damage to plant, LOLPE","rate 60, 20 DAA",0
same,"damage to plant, POAAN","rate 60, 20 DAA",10
same,"damage to plant, POLCO","rate 60, 20 DAA",0
same,"damage to plant, SINAR","rate 60, 20 DAA",0
same,"damage to plant, STEME","rate 60, 20 DAA",0
same,"damage to plant, VERPE","rate 60, 20 DAA",0
same,"damage to plant, ALOMY","rate 130, 20 DAA",0
same,"damage to plant, AVEFA","rate 130, 20 DAA",0
same,"damage to plant, BEAVA","rate 130, 20 DAA",0
same,"damage to plant, BROTE","rate 130, 20 DAA",0
same,"damage to plant, BRSNN","rate 130, 20 DAA",0
same,"damage to plant, CHEAL","rate 130, 20 DAA",0
same,"damage to plant, GALAP","rate 130, 20 DAA",0
same,"damage to plant, HORVW","rate 130, 20 DAA",0
same,"damage to plant, KCHSC","rate 130, 20 DAA",0
same,"damage to plant, LOLPE","rate 130, 20 DAA",0
same,"damage to plant, POAAN","rate 130, 20 DAA",20
same,"damage to plant, POLCO","rate 130, 20 DAA",0
same,"damage to plant, SINAR","rate 130, 20 DAA",0
same,"damage to plant, STEME","rate 130, 20 DAA",0
same,"damage to plant, VERPE","rate 130, 20 DAA",0
same,"damage to plant, ALOMY","rate 250, 20 DAA",20
same,"damage to plant, AVEFA","rate 250, 20 DAA",10
same,"damage to plant, BEAVA","rate 250, 20 DAA",0
same,"damage to plant, BROTE","rate 250, 20 DAA",10
same,"damage to plant, BRSNN","rate 250, 20 DAA",0
same,"damage to plant, CHEAL","rate 250, 20 DAA",10
same,"damage to plant, GALAP","rate 250, 20 DAA",0
same,"damage to plant, HORVW","rate 250, 20 DAA",0
same,"damage to plant, KCHSC","rate 250, 20 DAA",0
same,"damage to plant, LOLPE","rate 250, 20 DAA",30
same,"damage to plant, POAAN","rate 250, 20 DAA",80
same,"damage to plant, POLCO","rate 250, 20 DAA",0
same,"damage to plant, SINAR","rate 250, 20 DAA",0
same,"damage to plant, STEME","rate 250, 20 DAA",10
same,"damage to plant, VERPE","rate 250, 20 DAA",60
same,"damage to plant, ALOMY","rate 500, 20 DAA",70
same,"damage to plant, AVEFA","rate 500, 20 DAA",70
same,"damage to plant, BEAVA","rate 500, 20 DAA",0
same,"damage to plant, BROTE","rate 500, 20 DAA",30
same,"damage to plant, BRSNN","rate 500, 20 DAA",20
same,"damage to plant, CHEAL","rate 500, 20 DAA",20
same,"damage to plant, GALAP","rate 500, 20 DAA",0
same,"damage to plant, HORVW","rate 500, 20 DAA",20
same,"damage to plant, KCHSC","rate 500, 20 DAA",0
same,"damage to plant, LOLPE","rate 500, 20 DAA",80
same,"damage to plant, POAAN","rate 500, 20 DAA",80
same,"damage to plant, POLCO","rate 500, 20 DAA",10
same,"damage to plant, SINAR","rate 500, 20 DAA",0
same,"damage to plant, STEME","rate 500, 20 DAA",60
same,"damage to plant, VERPE","rate 500, 20 DAA",70
